Test results: a melting point compilation (Tetko et al.)

| Compound | melting point [°C] |
| --- | --- |
| COc1ccc(-n2nc(C(=O)c3cccs3)s/c2=N/C(=O)c2ccccc2)cc1 | 235 |
| O=C(c1ccccc1)c1ccccc1Cl | 46 |
| COc1ccc(OC)c(NC(N)=S)c1 | 160 |
| O=C(O)C=Cc1ccc(F)cc1Cl | 247 |
| O=C1C(c2ccccc2)=[N+]([O-])c2ccccc21 | 186 |
| COc1ccc2c(c1)CCC(C(=O)O)C2C (stereo not given) | 133 |
| O=C1CCCCCCCN1 | 78 |
| Cc1cc(N=C2c3ccccc3CN2c2cc(C)on2)no1 | 191 |
| COCCNc1c(C=O)c(=O)n(C)c(=O)n1C | 137 |
| O=C1CC2C(CC(OC(=O)c3ccccc3)C2CO)O1 (single isomer, unassigned; (-)) | 116 to 120 |
| Nn1c(S)nnc1C(F)(F)F | 141 |
| Nc1ccccc1CO | 83.5 |
| O=C(O)CCCCCCCCCCBr | 57 |
| O=[N+]([O-])c1ccc(/C=C/c2ccc3c(c2)OCO3)c([N+](=O)[O-])c1 | 178 to 179 |
| Cc1nccn1-c1ccccc1C(=O)O | 232 to 234 |
| O=C(O)c1ccc(Cl)cc1[N+](=O)[O-] | 144 |
| Cc1oc(S(=O)(=O)N2CCCCC2)cc1C(=O)O | 194 to 195 |
| COc1cc(C(=O)NN)cc(OC)c1O | 156 |
| O=C(O)CN1CCOCCOCCN(CC(=O)O)CCOCCOCC1 | 173 to 175 |
| O=C(O)CCc1ccc2c(c1)CCC(=O)N2 | 234 |
| O=C(O)c1cc(-c2ccc(Br)cc2)oc1C(F)(F)F | 201 to 203 |
| O=c1c(=O)c2ccccc12 | 131 |
| C/C(=C\C=C\c1ccccc1)C(=O)O | 159 |
| N#Cc1cc(Cl)ccc1O | 165 to 168 |
| Nc1cc(N)c(/C=C/c2ccccc2)cc1/C=C/c1ccccc1 | 201 |
| COC(=O)C(C#N)=C(SCc1ccccc1)SCc1ccccc1 | 104 |

| Compound | melting point [°C] |
| --- | --- |
| Cc1ccc(Br)c(O)c1C(=O)O | 57 |
| FC1=C(F)C(F)(F)C1(F)F | -60 |
| CCCOCCC | -122 |
| O=CNC(c1ccccc1)C(O)c1ccccc1 (stereo not given) | 205 |
| CC12CCC(/C(=C/N(OC(=O)c3ccc([N+](=O)[O-])cc3)c3ccccc3)C1=O)C2(C)C (stereo not given) | 180 |
| COC1C=CC2=CCN3CCC4=C(CC(=O)OC4)C23C1 (stereo not given) | 99.5 |
| C=CCl | -154 |
| CCOC(=O)C(O)C(O)C(=O)OCC (stereo not given) | 17 |
| COc1cc(CCl)cc(OC)c1 | 46 to 48 |
| NNc1ccc(F)cc1F | 65 to 67 |
| NNc1ccc(S(=O)(=O)O)cc1 | 286 |
| OC1CCSCC1 | 50 to 51 |
| CCC1CN2CCC1CC2C(O)c1ccnc2ccccc12 (stereo not given) | 268 |
| CC(C)(C)CC(C)(C)c1ccc(O)cc1 | 84.5 |
| COc1ccc(-c2occ(C(=O)c3ccccc3)c2S(=O)(=O)c2ccccc2)cc1 | 110 |
| Nc1ccccc1CCCCc1ccccc1N | 74 |
| N#Cc1ccc(F)cc1Br | 76 |
| Sc1nnc(-c2ccco2)n1-c1ccc(OCc2ccccc2)cc1 | 236 to 238 |
| O=C1NC(=S)SC1=Cc1cccc(C=C2SC(=S)NC2=O)c1 | 316 |
| O=C(O)c1cc(S(=O)(=O)O)ccc1O | 120 |
| CCCCCC(O)C=CC1C(O)CC(=O)C1CC=CCCCC(=O)O (stereo not given) | 67 |
| Oc1ncc(O)c(O)n1 | 330 |
| CC(=O)Oc1cccc2cccnc12 | 55 |
| CC1CCc2cc3c(cc2N1)CCC(C)N3 (stereo not given) | 125 to 134 |
| N#Cc1cc([N+](=O)[O-])ccc1Sc1nnc(N)s1 | 245 to 246 |
| COc1ccc(-c2nn(-c3ccccc3)cc2CNc2ccc(F)c(Cl)c2)cc1 | 117 |

| Compound | melting point [°C] |
| --- | --- |
| CCOC(=O)c1c(C)sc(Sc2ccccc2[N+](=O)[O-])c1O | 144 to 146 |
| Cc1c(N)cccc1N | 106 |
| Brc1ccc(Oc2cccc(Br)c2)cc1 | < 20 |
| CSc1nccc(-c2ccc(S(=O)(=O)Cl)s2)n1 | 129 to 131 |
| O=C(O)c1cc(F)ccc1O | 179 to 182 |
| COC(=O)c1sccc1N1C(=O)C=CC1=O | 130 to 131 |
| O=S1(=O)CCN(CN2CCS(=O)(=O)NC2)CN1 | 154 |
| NC(=S)c1ccc(Cl)cc1Cl | 135 to 136 |
| CC(C)CCCC(C(=O)O)C1=CCC2(C)C(CCC3C4CCC(O)C4(C)CCC32)C1 (stereo not given) | 193 |
| C/C=C/C1Nn2c(nnc2-c2cccc([N+](=O)[O-])c2)S1 (stereo not given) | 222 to 224 |
| Cc1ccc(OP(=O)(Oc2ccc(C)cc2)Oc2ccc(C)cc2)cc1 | 77.5 |
| CC(C)(C)[Si](Cl)(Cl)Cl | 98 |
| C(=C/c1ccco1)/c1ccc2cc3ccc(/C=C/c4ccco4)nc3cc2n1 | 272 |
| O=c1c(Cl)c(Cl)cnn1-c1ccccc1 | 163 to 164 |
| CC(C)(C)OC(=O)N[C@@H](CCCCN)C(=O)O | 205 |
| COc1ccc(C(N)=S)cc1 | 148 to 152 |
| O=C(O)CCCCCCCCCCCCCCC(=O)O | 124 to 126 |
| COc1ccc(-c2ccccc2)cc1N | 81 to 84 |
| CCOC(=O)C1=C(C)NC(C)=C(C(=O)OCC)C1c1ccccc1 | 157 |
| CCCCOCN(C(=O)CCl)c1c(CC)cccc1CC | -0.55 |
| CC(=O)NC1CC=CCC(NC(C)=O)CC=CC1 (stereo not given) | 267 to 277 |
| O=C1Cc2cccc(Br)c21 | 81.5 to 83 |
| CCOC(=O)C(=O)c1cc(C(=O)C(=O)OCC)c([N+](=O)[O-])cc1[N+](=O)[O-] | 118 |
| CC(C)(N)P(=O)(O)O | 287 to 290 |
| O=C1/C(=N\Nc2cccc([N+](=O)[O-])c2)C(C(F)(F)F)=NN1c1ccccc1 | 150 |
| Cc1cc(N)c(Cl)cc1F | 69 to 71 |

| Compound | melting point [°C] |
| --- | --- |
| CC(=O)Nc1cc(NC(C)=O)c(C=Cc2ccccc2)cc1C=Cc1ccccc1 | 224 |
| N[C@@H](CCCCNC(=O)c1ccccc1)C(=O)O | 251 to 256 |
| CC/C=C/CCCC | -110 |
| CC(=Cc1ccc(C(=O)O)cc1)c1ccc2c(c1)C(C)(C)CCC2(C)C | 240 |
| C=CC(=O)NC(C)C | 64 |
| CCCCOc1ccc(-c2nnc3sc(-c4ccc(Cl)c([N+](=O)[O-])c4)nn23)cc1 | 70 |
| Fc1nc(Cl)c2[nH]cnc2n1 | 162 to 163 |
| Cc1cc(C)c2c(=O)[nH]n(C)c2n1 | 216 |
| CC(=O)c1cccc2ccccc12 | 34 |
| Cc1c(C)c2c3ccccc3ccc2c2ccccc12 | 129 |
| Cn1c(CN)nc2ccccc21 | 261 to 263 |
| Cc1cc(C(F)(F)F)n2nc(N)c(/N=N/c3cc(Cl)c(Cl)cc3Cl)c2n1 | 228 |
| Cc1ccccc1NC(=O)C(C(F)(F)F)C(F)(F)F | 193 to 195 |
| Cc1ccccc1C(=O)NCC(=O)O | 161 to 165 |
| CCNCC(=O)O | 182 to 186 |
| COC(=O)c1sc(C(F)(F)F)c(-c2ccccc2)c1N | 119 to 120 |
| CC12CCC3C(CCC4(C)CC(=O)CCC34C)C1CCC2=O (stereo not given) | 148 |
| C#CC(O)(c1ccccc1)c1ccccc1 | 47 to 48 |
| C=C(C)C(=O)Oc1ccc(C(C)(C)c2ccc(OC(=O)C(=C)C)cc2)cc1 | 70 to 76 |
| C=CCCCCCCC1CO1 (stereo not given) | 25 |
| Cc1cc(C)nc(S)n1 | 213 to 217 |
| CC(C)(C)c1cc(O)ccc1O | 128 |
| CC(=O)NC1=NC(=O)C(=Cc2cc(=O)c3ccccc3o2)N1C | 244 to 246 |
| CCCCCCCCCCCCCCCCC(CCC)c1ccccc1 (stereo not given) | 31.4 |
| C[Si](C)(C)N(c1ccccc1)[Si](C)(C)C | 16.5 |
| O=C(O)C=Cc1cccc(Cl)c1 | 163 to 166 |

| Compound | melting point [°C] |
| --- | --- |
| C=C1N(C(C)=O)c2ccccc2C1(C)C(=O)OC (stereo not given) | 59 to 61 |
| CCOC(=O)c1[nH]c2ccccc2c1C | 130 to 133 |
| Cc1nc(-c2ccc(-c3ccccc3)cc2)cs1 | 113 to 118 |
| O=C(c1ccccc1)c1ccccc1C(=O)c1ccccc1 | 146 |
| O=S(=O)(C[C@@H](COCc1ccccc1)OCc1ccccc1)c1ccccc1 | 55 to 56 |
| CCOc1cccc(C(=O)NN)c1 | 102 |
| O=[N+]([O-])c1ccc(-c2nnc3n2NC(c2ccccc2O)S3)cc1 (stereo not given) | 195 |
| CC(O)C1(C)CCC2=C1CCC1C2CCC2(C)CC(O)CCC12C (stereo not given) | 205 to 207 |
| O=Cc1cnc2ccccc2n1 | 108 to 111 |
| CCCN=C=O | -30 |
| CC(C)(C)c1cc(C(F)(F)F)nc(N)n1 | 48 to 50 |
| O=S(=O)(O)c1ccc(O)c2ncccc12 | 322 |
| c1n[nH]c2c1CSC2 | 132 to 133 |
| Nc1ccc(C(=O)O)cc1F | 215 |
| CC1CCC(C)(C(=O)CN(C)C(=S)Nc2ccccc2)C1(C)C (stereo not given) | 147 |
| Cc1nn(C)c(C)c1I | 72 to 74 |
| OCc1cn2ccsc2n1 | 154 to 155 |
| Cn1nc(CCl)cc1-c1cccs1 | 41 to 42 |
| O=Nc1c(Cl)cccc1Cl | 172 |
| OCc1cc(Cl)cc(Cl)c1O | 82 to 83 |
| C[N+](C)(C)CC(=O)[O-] | 301 |
| COc1cc(C=O)cc(Br)c1O | 164 to 166 |
| CCO/C=N/c1c(C(=O)OCC)sc2sc(C(=O)OCC)c(/N=C/OCC)c12 | 267 |
| COc1cc(C=C2CCCC(=Cc3ccc(O)c(OC)c3)C2=O)ccc1O | 178 |
| COC(=O)CCC(C)C1CCC2C3C(O)C(O)C4CCCCC4(C)C3CCC12C (stereo not given) | 120 to 121 |
| CCOC(=O)C1=C(C)NC(=O)NC1c1ccccc1C(F)(F)F (stereo not given) | 203 |
